Laboratory results from patent publication US6706663B2, “Herbicidal 3-heterocyclic substituted benzisothiazole and benzisoxazole compounds” (Wyeth, priority 2000, dated 2004).

Legend:
[1] = tested on: GLXMAW (Soybean, Williams); assay: Preemergence herbicidal evaluation; assay type: in vivo, Glycine max, (L.) Merr. cv Williams; conditions: preemergence, rated 4-5 weeks after treatment
[2] = tested on: GALAP (Galium aparine); assay: Postemergence herbicidal evaluation; assay type: in vivo
How it was run: (§1)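 Visual 0–9 injury scores versus control plants, covering stand, vigour, malformation, size, chlorosis and general appearance, taken four to five weeks post-spray and averaged over replicate tests. Plants were sprayed at roughly two weeks old and held on greenhouse benches.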

[3] = tested on: GALAP (Galium aparine); assay: Preemergence herbicidal evaluation; assay type: in vivo; conditions: preemergence, rated 4-5 weeks after treatment
How it was run: (§2)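 Steps: mix seeds with potting soil; plant on ~1 inch soil per cup; spray compound in aqueous acetone; hold on greenhouse benches with routine watering; rate 0–9 visually against control at 4–5 weeks.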

[4] = tested on: CYPIR (Cyperus iria); assay: Flooded paddy, postemergence weed control; assay type: in vivo; conditions: postemergence weeds, rated 3-4 weeks after treatment
Source text: (§3) Results of herbicide evaluation are expressed on a rating scale (0-9). The scale is based upon a visual observation of plant stand, vigor, malformation, size, chlorosis and overall plant appearance as compared with a control.
(§4) Plastic containers containing weeds which are 3 to 5 cm tall and rice seedlings at the 1.5 to 2.5 leaf stage are flooded with water. The water is maintained at 1.5 to 3 cm above the soil surface for the duration of the experiment. Test compounds are applied as aqueous/acetone mixtures 50/50 v/v directly into the flood water to provide the equivalent of about 0.0320 to 0.2500 kg/ha of active ingredient. The treated containers are placed on greenhouse benches and cared for in accordance with conventional greenhouse procedures. Three to four weeks after treatment, the test is terminated and each container is examined and herbicidal effect rated according to the rating system provided in Example 87. The compounds evaluated are identified in Example 87 and plant species used are identified in Example 89.

[5] = tested on: ORYSAT (Rice, Tebonnet); assay: Flooded paddy, post-transplant and postemergence rice tolerance; assay type: in vivo, Oryza sativa, (L.) Tebonnet; conditions: post-transplant rice, rated 3-4 weeks after treatment
Source text: as §3, §4

[6] = tested on: ZEAMX (Corn, Field); assay: Preemergence herbicidal evaluation; assay type: in vivo, Zea mays, L.; conditions: preemergence, rated 4-5 weeks after treatment
[7] = tested on: SETVI (Setaria viridis); assay: Preemergence herbicidal evaluation; assay type: in vivo, (L.) Beau; conditions: preemergence, rated 4-5 weeks after treatment
How it was run: as §2

[8] = tested on: ECHCG (Echinochloa crus-galli); assay: Preemergence herbicidal evaluation; assay type: in vivo, (L.) Beau; conditions: preemergence, rated 4-5 weeks after treatment
How it was run: as §2

[9] = tested on: SAGPY (Sagittaria pygmaea); assay: Flooded paddy, postemergence weed control; assay type: in vivo, L.; conditions: postemergence weeds, rated 3-4 weeks after treatment
Source text: as §3, §4

[10] = tested on: GLXMAW (Soybean, Williams); assay: Postemergence herbicidal evaluation; assay type: in vivo, Glycine max, (L.) Merr. cv Williams
How it was run: as §1

[11] = tested on: MOOVA (Monochoria vaginalis); assay: Flooded paddy, postemergence weed control; assay type: in vivo, Presl.; conditions: postemergence weeds, rated 3-4 weeks after treatment
Source text: as §3, §4

[12] = tested on: MOOVA (Monochoria vaginalis); assay: Flooded paddy, preemergence weed control; assay type: in vivo, Presl.; conditions: rated 3-4 weeks after treatment, 0-9 rating scale
How it was run: (§5)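 Seeds or propagating organs were sown in the top 0.5 cm of silt loam soil, flooded, and the water kept 1.5 to 3 cm above the soil surface throughout. Plants were grown in the greenhouse and rated visually on a 0-9 scale against a control.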

[13] = tested on: SETVI (Setaria viridis); assay: Postemergence herbicidal evaluation; assay type: in vivo, (L.) Beau
How it was run: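 Seedlings about two weeks old were sprayed with compound in 50/50 acetone/water plus 0.5% TWEEN 20, at the equivalent of about 0.0040 to 1.000 kg/ha. Plants were kept in a greenhouse and visually rated 0-9 against a control four to five weeks after treatment. Repeat tests were averaged.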

[14] = tested on: IPOHE (Ipomoea hederacea); assay: Preemergence herbicidal evaluation; assay type: in vivo, (L.) Jacq.; conditions: preemergence, rated 4-5 weeks after treatment
[15] = tested on: CYPIR (Cyperus iria); assay: Flooded paddy, preemergence weed control; assay type: in vivo; conditions: rated 3-4 weeks after treatment, 0-9 rating scale
How it was run: as §5

[16] = tested on: CYPSE (Cyperus serotinus); assay: Flooded paddy, postemergence weed control; assay type: in vivo, Rottb.; conditions: postemergence weeds, rated 3-4 weeks after treatment
Source text: as §3, §4

[17] = tested on: ECHORC (Echinochloa oryzoides); assay: Flooded paddy, postemergence weed control; assay type: in vivo, Echinochloa oryzoides (Ard.) Fritsch.; conditions: postemergence weeds, rated 3-4 weeks after treatment
Source text: as §3, §4

`CCc1cc(-c2nsc3ccc(-n4c(=O)cc(C(F)(F)F)n(C)c4=O)cc23)c(CC)s1` [Compound 8, 3-[3-(2,5-diethyl-3-thienyl)-1,2-benzisothiazol-5-yl]-1-methyl-6-(trifluoromethyl)uracil] was tested, and the “GLXMAW preemergence herbicidal rating” value ([1]; Rate 0.0620 kg/ha) was 0.0, the “GLXMAW preemergence herbicidal rating” value ([1]; Rate 0.1250 kg/ha) was 0.0 and the “GLXMAW preemergence herbicidal rating” value ([1]; Rate 0.2500 kg/ha) was 0.0. The “Postemergence herbicidal rating, GALAP” value ([2]; rate 0.0320 kg/ha) was 3.0, the “Postemergence herbicidal rating, GALAP” value ([2]; rate 0.0620 kg/ha) was 6.0 and the “GALAP preemergence herbicidal rating” value ([3]; Rate 0.0620 kg/ha) was 0.0. For the same molecule, the “GALAP preemergence herbicidal rating” value ([3]; Rate 0.1250 kg/ha) was 0.0, the “GALAP preemergence herbicidal rating” value ([3]; Rate 0.2500 kg/ha) was 9.0 and the “herbicide rating (0-9) CYPIR” value ([4]; 0.0320 kg/ha into flood water) was 9.0. For the same molecule, the “herbicide rating (0-9) CYPIR” value ([4]; 0.0620 kg/ha into flood water) was 9.0, the “herbicide rating (0-9) CYPIR” value ([4]; 0.1250 kg/ha into flood water) was 9.0 and the “herbicide rating (0-9) ORYSAT (rice tolerance)” value (“herbicide rating (0-9) ORYSAT” below) ([5]; 0.0320 kg/ha into flood water) was 1.0. The “herbicide rating (0-9) ORYSAT” value ([5]; 0.0620 kg/ha into flood water) was 2.0, the “herbicide rating (0-9) ORYSAT” value ([5]; 0.1250 kg/ha into flood water) was 2.0 and the “ZEAMX preemergence herbicidal rating” value ([6]; Rate 0.0620 kg/ha) was 0.0. For the same molecule, the “ZEAMX preemergence herbicidal rating” value ([6]; Rate 0.1250 kg/ha) was 0.0, the “ZEAMX preemergence herbicidal rating” value ([6]; Rate 0.2500 kg/ha) was 3.0 and the “SETVI preemergence herbicidal rating” value ([7]; Rate 0.0620 kg/ha) was 9.0. The “SETVI preemergence herbicidal rating” value ([7]; Rate 0.1250 kg/ha) was 9.0, the “SETVI preemergence herbicidal rating” value ([7]; Rate 0.2500 kg/ha) was 9.0 and the “ECHCG preemergence herbicidal rating” value ([8]; Rate 0.0620 kg/ha) was 0.0. The “ECHCG preemergence herbicidal rating” value ([8]; Rate 0.1250 kg/ha) was 0.0, the “ECHCG preemergence herbicidal rating” value ([8]; Rate 0.2500 kg/ha) was 9.0 and the “herbicide rating (0-9) SAGPY” value ([9]; 0.0320 kg/ha into flood water) was 0.0. For the same molecule, the “herbicide rating (0-9) SAGPY” value ([9]; 0.0620 kg/ha into flood water) was 0.0, the “herbicide rating (0-9) SAGPY” value ([9]; 0.1250 kg/ha into flood water) was 1.0 and the “Postemergence herbicidal rating, GLXMAW” value ([10]; rate 0.0320 kg/ha) was 5.0. The “Postemergence herbicidal rating, GLXMAW” value ([10]; rate 0.0620 kg/ha) was 5.5, the “herbicide rating (0-9) MOOVA” value ([11]; 0.0320 kg/ha into flood water) was 4.5 and the “herbicide rating (0-9) MOOVA” value ([11]; 0.0620 kg/ha into flood water) was 4.5. For the same molecule, the “herbicide rating (0-9) MOOVA” value ([11]; 0.1250 kg/ha into flood water) was 5.5, the “herbicidal rating, MOOVA” value ([12]; rate 0.0080 kg/ha) was 9.0 and the “herbicidal rating, MOOVA” value ([12]; rate 0.0320 kg/ha) was 9.0. For the same molecule, the “herbicidal rating, MOOVA” value ([12]; rate 0.1250 kg/ha) was 9.0, the “Postemergence herbicidal rating, SETVI” value ([13]; rate 0.0320 kg/ha) was 3.0 and the “Postemergence herbicidal rating, SETVI” value ([13]; rate 0.0620 kg/ha) was 4.0. The “IPOHE preemergence herbicidal rating” value ([14]; Rate 0.0620 kg/ha) was 0.0, the “IPOHE preemergence herbicidal rating” value ([14]; Rate 0.1250 kg/ha) was 0.0 and the “IPOHE preemergence herbicidal rating” value ([14]; Rate 0.2500 kg/ha) was 1.0. The “herbicidal rating, CYPIR” value ([15]; rate 0.0080 kg/ha) was 8.5, the “herbicidal rating, CYPIR” value ([15]; rate 0.0320 kg/ha) was 9.0 and the “herbicidal rating, CYPIR” value ([15]; rate 0.1250 kg/ha) was 9.0. For the same molecule, the “herbicide rating (0-9) CYPSE” value ([16]; 0.0320 kg/ha into flood water) was 0.0, the “herbicide rating (0-9) CYPSE” value ([16]; 0.0620 kg/ha into flood water) was 0.0 and the “herbicide rating (0-9) CYPSE” value ([16]; 0.1250 kg/ha into flood water) was 0.0. For the same molecule, the “herbicide rating (0-9) ECHORC” value ([17]; 0.0320 kg/ha into flood water) was 3.5, the “herbicide rating (0-9) ECHORC” value ([17]; 0.0620 kg/ha into flood water) was 4.0 and the “herbicide rating (0-9) ECHORC” value ([17]; 0.1250 kg/ha into flood water) was 5.0.
